From US6326395A, “Antifungal activity of dicationic molecules” (priority 1999, dated 2001)
In brackets after ≈: the same amount, converted by molar mass. Like-named read-outs stand apart in the source and are kept apart here.

Assays:
[1] = system: Cryptococcus neoformans H99; assay: antifungal susceptibility testing (MIC, MFC), extended spectrum; format: cell-based, C. neoformans var. neoformans; details: Cryptococcus neoformans, H99, read-out: MICs
Text: (§1) Antifungal susceptibility testing for compounds set forth in Examples 1-20 is discussed hereinbelow. The fungi that were employed included two reference strains, C. neoformans var. neoformans H99 and C. albicans A39 and the following clinical isolates: (1) two strains of fluconazole-resistant C. neoformans var. neoformans (135.95 and 114.96); (2) two strains of C. neoformans var. gattii (119.95 and 114.95); (3) two strains of fluconazole-resistant C. albicans (102.96 and 103.96); and (4) one strain each of Torulopsis glabrata (142.91), Candida parapsilosis (111.96), Candida krusei (132.91), C. tropicalis (110.96), Candida lusitaniae (111.92), Fusarium solani (152.89), Aspergillus fumigatus (168.95), and Aspergillus flavus (112.96). Antifungal susceptibility testing was performed using an RPMI-1640 medium (Sigma Chemical Co., St. Louis, Mo.) with glutamine, without sodium bicarbonate, and buffered at pH 7.0 with 0.165 M morpholine-propanesulfonic acid (MOPS).
(§2) In vitro susceptibility testing in the form of Minimum Inhibitory Concentration (MIC) experiments were performed using the broth macrodilution method according to the recommendations of the National Committee for Clinical Laboratory Standards (see 1995 manual). […] Briefly, this procedure specifies an inoculum grown at 35° C. and adjusted to a concentration of 0.5-2.5×10^3 CFU/ml with an incubation of the test performed at 35° C. and reading at 48 hours for all yeasts except for C. neoformans which is interpreted at 72 hr.
(§3) Minimum Fungicidal Concentration (MFC) experiments were adapted from a method by McGinnis (McGinnis, M. R., (1980) "Susceptibility testing and bioassay procedure", p. 431, Academic Press, Inc., New York). […] The lowest drug concentration that yielded three or fewer yeasts colonies was recorded as the MFC. […]
as §3, with “p.431,” for “p. 431,”, “3” for “three”

Candida albicans A39 = assay: as above; format: cell-based; details: Candida albicans, A39, read-out: MICs
Text: as §1
(§4) In vitro susceptibility testing in the form of Minimum Inhibitory Concentration (MIC) experiments were performed using the broth macrodilution method according to the recommendations of the National Committee for Clinical Laboratory Standards (see 1995 manual). The only difference compared to the standardized procedure was the choice of drug dilutions ranging from 100 to 0.09 μg/ml. Briefly, this procedure specifies an inoculum grown at 35° C. and adjusted to a concentration of 0.5-2.5×10^3 CFU/ml with an incubation of the test performed at 35° C. and reading at 48 hours for all yeasts except for C. neoformans which is interpreted at 72 hr.
(§5) Minimum Fungicidal Concentration (MFC) experiments were adapted from a method by McGinnis (McGinnis, M. R., (1980) "Susceptibility testing and bioassay procedure", p. 431, Academic Press, Inc., New York). Briefly, 10 μl aliquots from tubes with growth inhibition were plated onto Sabouraud agar plates. The lowest drug concentration that yielded three or fewer yeasts colonies was recorded as the MFC.
(§6) Antifungal susceptibility testing for compounds set forth in Examples 21-28 is discussed hereinbelow. […]
as §3, with “p.431,” for “p. 431,”, “3” for “three”

Candida albicans = assay: in vitro antifungal susceptibility testing (MIC, MFC; broth macrodilution), Tables 1-7; format: cell-based; details: read-out: MIC80 (Minimum inhibitory concentration 80%)
Text: as §1, with “The” for “Antifungal susceptibility testing for compounds set forth in Examples 1-20 is discussed hereinbelow. The”
as §4
as §5, with “plates.” for “plates. The lowest drug concentration that yielded three or fewer yeasts colonies was recorded as the MFC.”
(§7) The fungi that were employed included two quality control reference strains, C. neoformans var. neoformansH99 and C. albicans A39 and the following clinical isolates: (1) four strains of C. neoformans var. neoformans (167.95; 135.95; 114.96; and 133.95) of which three were fluconazole-resistant>64 μg/ml (135.95; 114.96; and 133.95); (2) two strains of C. neoformans var. gattii (119.95 and 114.95); (3) two strains of fluconazole-resistant>64 μg/ml C. albicans (102.96 and 103.96); and (4) one strain each of C. glabrata (142.91), Candida parapsilosis (111.96), Candida krusei (132.91), C. tropicalis (110.96), Candida lusitaniae (111.92), Fusarium solani (152.89), Aspergillus fumigatus (168.95), Rhizopus arrhizus (117.89), Paecilomyces lilacinus (137.90), and Aspergillus flavus (112.96). Antifungal susceptibility testing was performed using an RPMI-1640 medium (Sigma Chemical Co., St. Louis, Mo.) with glutamine, without sodium bicarbonate, and buffered at pH 7.0 with 0.165 M morpholinepropanesulfonic acid (MOPS).
as §5, with “p.431,” for “p. 431,”, “plates.” for “plates. The lowest drug concentration that yielded three or fewer yeasts colonies was recorded as the MFC.”

Cryptococcus neoformans = assay: as above; format: cell-based; details: for MIC: read-out: MIC80 (Minimum inhibitory concentration 80%)
Text: as §1, with “The” for “Antifungal susceptibility testing for compounds set forth in Examples 1-20 is discussed hereinbelow. The”
as §4
as §5, with “plates.” for “plates. The lowest drug concentration that yielded three or fewer yeasts colonies was recorded as the MFC.”
as §7
as §5, with “p.431,” for “p. 431,”, “plates.” for “plates. The lowest drug concentration that yielded three or fewer yeasts colonies was recorded as the MFC.”

C. neoformans 114.96 = assay: antifungal susceptibility testing (MIC, MFC), extended spectrum; format: cell-based, C. neoformans var. neoformans; details: Cryptococcus neoformans, read-out: fluconazole-resistant
Text: as §1, §2, §3
as §3, with “p.431,” for “p. 431,”, “3” for “three”

C. albicans 103.96 = assay: as above; format: cell-based, Candida albicans; details: Candida albicans, 103.96, read-out: fluconazole-resistant
Text: as §1, §4, §5
as §7, with “Antifungal susceptibility testing for compounds set forth in Examples 21-28 is discussed hereinbelow. The” for “The”
as §5, with “p.431,” for “p. 431,”, “3” for “three”, “MFC. Several drugs were also rescreened with a subculture of 100 μl aliquots from tubes with no growth and there was no change in MFC.” for “MFC.”

C. albicans 102.96 = assay: as above; format: cell-based, Candida albicans; details: Candida albicans, 102.96, read-out: fluconazole-resistant
Text: as §1, §4, §5
as §7, with “Antifungal susceptibility testing for compounds set forth in Examples 21-28 is discussed hereinbelow. The” for “The”
as §5, with “p.431,” for “p. 431,”, “3” for “three”, “MFC. Several drugs were also rescreened with a subculture of 100 μl aliquots from tubes with no growth and there was no change in MFC.” for “MFC.”

C. neoformans 133.95 = assay: as above; format: cell-based, C. neoformans var. neoformans; details: Cryptococcus neoformans, read-out: fluconazole-resistant
Experimental: as §6, §2
as §3, with “p.431,” for “p. 431,”, “3” for “three”

C. neoformans 135.95 = assay: as above; format: cell-based, C. neoformans var. neoformans; details: Cryptococcus neoformans, read-out: fluconazole-resistant
Experimental: as §6, §2
as §3, with “p.431,” for “p. 431,”, “3” for “three”

Compound | MIC [1] | MIC (Candida albicans A39) | MIC (Candida albicans; 35° C., reading at 48 hours) | MIC (Cryptococcus neoformans; 35° C., 72 hr) | MIC (C. neoformans 114.96) | MIC (C. albicans 103.96) | MIC (C. albicans 102.96) | MIC (C. neoformans 133.95) | MIC (C. neoformans 135.95) | MIC (Candida albicans; 48 h) | MIC80 (Minimum inhibitory concentration 80%) (Cryptococcus neoformans; 35° C., 72 hr) | MIC (Cryptococcus neoformans; 72 h)
C[C@@H]1[C@H](O)[C@@H](C)/C=C/C=C/C=C/C=C/C=C/C=C/C=C/[C@H](O[C@@H]2O[C@H](C)[C@@H](O)[C@H](N)[C@@H]2O)C[C@@H]2O[C@](O)(C[C@@H](O)C[C@@H](O)[C@H](O)CC[C@@H](O)C[C@@H](O)CC(=O)O[C@H]1C)C[C@H](O)[C@H]2C(=O)O [Amphotericin, reference compound] | 1 µg/mL (≈ 1.08 µM) | 1 µg/mL (≈ 1.08 µM) | 1 µg/mL (≈ 1.08 µM) | 1 µg/mL (≈ 1.08 µM) | – | – | – | – | – | – | – | –
OC(Cn1cncn1)(Cn1cncn1)c1ccc(F)cc1F [Fluconazole, reference compound] | – | 0.25 µg/mL (≈ 0.816 µM) | – | – | > 64 µg/mL | > 64 µg/mL | > 64 µg/mL | > 64 µg/mL | > 64 µg/mL | 0.25 µg/mL (≈ 0.816 µM) | 2.0 µg/mL (≈ 6.53 µM) | 2 µg/mL (≈ 6.53 µM)
